From patent US20240390487A1, “TLR AGONISTS FOR REDUCING ACTIVATION-INDUCED PD-1 EXPRESSION ON T CELLS AND METHODS OF USE” (WISCONSIN ALUMNI RESEARCH FOUNDATION, priority 2016, published 2024)
Entries after “also recorded” stand apart in the source; their conditions may differ.

What was measured:
[1] = system: ovalbumin-expressing E.G7 cells; test: Ovalbumin tumor treatment study: peptide immunization with or without TLR agonist; type: in vivo, mice; details: for anti-tumor effect of peptide immunization with TLR agonist: OVA or FT peptide with TLR agonist versus peptide alone, E.G7 tumors, OT-1 transfer; for LAG-3 expression on CD8+ TIL / PD-1 expression on CD8+ TIL / PD-L1 expression on tumor cells / number of CD8+ tumor-infiltrating lymphocytes: tumors at necropsy; for anti-tumor efficacy of TLR ligand adjuvant alone: with non-specific peptide, no antigen-specific T-cell activation
Method: OT-1 T cells were then adoptively transferred and the following day were immunized with SIINFEKL (SEQ ID NO:1, OVA) or FT peptide (SEQ ID NO:2) alone or with TLR1/2 or TLR7 agonist. Other groups were immunized with 100 μg anti-PD-1 antibody delivered the following day. […] This anti-tumor effect was not observed with TLR agonist treatment alone (FIG. 22). […] This was associated with a reduced PD-1 (but not LAG-3) expression on CD8+ TIL (FIG. 17C).
Ovalbumin tumor treatment studies: 10^6 ovalbumin-expressing E.G7 PD-L 1^high cells were injected subcutaneously into 6- to 10-week old female B6 mice. Ten to fifteen days post injection, when tumors were palpable and similarly sized (˜0.2 cm^3), 2×10^6 naïve OT-1 CD8+ T cells were adoptively transferred to each mouse as described above. The following day mice were immunized subcutaneously with 100 μg of an individual peptide (SIINFEKL (SEQ ID NO:1) or variant, LifeTein) in PBS, with or without TLR agonists as described above. In the group receiving PD-1 blocking antibody, 100 μg of antibody (clone G4 (52)) was injected intraperitoneally on the day following vaccination. Tumor volume was measured over time using calipers and calculated in cubic centimeters according to the following formula: (π/6)*(long axis)*(short axis)^2. Tumors obtained at necropsy were digested in media containing 1 mg/mL collagenase and 20 μg/mL DNAse I (Sigma, St. Louis, MO) for 1-2 hours at 37° C. and passed through a 100-μm screen to obtain a single-cell suspension. Tumor cells and tumor-infiltrating lymphocytes (TILs) were stained and analyzed by flow cytometry using the following panel: CD3-FITC (BD 555274), CD4-BUV395 (BD 563790), CD8-BUV805 (BD 564920), LAG-3-BV711 (BD 563179), PD1-PECF594 (BD 562523), PDL1-PECy7 (BD 558017), 41BB-PerCPeF710) (eBioscience 46-1371-82), CD45-BV510 (BD 563891) and Live/Dead Ghost dye 780 (Tonbo, San Diego, CA 13-0865-T100) or corresponding fluorescently labeled IgG controls.

[2] = system: SSX2-expressing sarcoma cells; test: SSX2 tumor treatment study: DNA vaccine with or without TLR agonist; type: in vivo, mice; details: for anti-tumor efficacy / tumor growth suppression in combination with DNA vaccine: TLR agonist with DNA vaccine versus vaccine alone; for effect on tumor growth of TLR agonist alone (with vector DNA): with control vector pTVG4
Method: Mice expressing human HLA-A2 were injected subcutaneously with SSX2-expressing sarcoma cells. Starting one day after inoculation, and every 7 days thereafter, mice were vaccinated with a DNA vaccine encoding SSX2, an optimized version of SSX2 with increased affinity for HLA-A2 (pTVG-SSX2 opt) or negative control vector pTVG4. All were done with or without TLR1/2 agonist or TLR7 agonist mixed with the DNA. A solution of DNA and a solution of TLR agonist in PBS were made and mixed together prior to administration. Note that TLR stimulation via a TLR agonist improves the efficacy of pTVG-SSX2 opt to a greater extent than pTVG-SSX2.
Using this model, HLA-A2-expressing transgenic mice were implanted with synovial sarcoma, X breakpoint 2 (SSX-2)-expressing tumor cells. […], mice were then immunized weekly with control vector (pTVG4), DNA encoding native SSX2 (pTVG-SSX2), or DNA encoding high affinity HLA-A2 epitopes (pTVG-SSX2 opt) in the presence or absence of Pam3CSK4 (TLR1/2) or Gardiquimod (TLR7) agonist.
SSX2 tumor treatment studies: 6- to 8-week old HHDII-DR1 mice were inoculated with 10^5 A2/Sarc-SSX2 cells administered subcutaneously, and then immunized intradermally with DNA vaccines weekly beginning one day after tumor implantation, as previously described (42). TLR agonists or vehicle were co-administered with the vaccine intradermally, and tumor volumes were measured over time using calipers, as described above.

| Compound | anti-tumor effect of peptide immunization with TLR agonist [1] | LAG-3 expression on CD8+ TIL [1] | PD-1 expression on CD8+ TIL [1] | PD-L1 expression on tumor cells [1] | number of CD8+ tumor-infiltrating lymphocytes [1] | anti-tumor efficacy of TLR ligand adjuvant alone [1] | anti-tumor efficacy / tumor growth suppression in combination with DNA vaccine [2] | effect on tumor growth of TLR agonist alone (with vector DNA) [2] |
| --- | --- | --- | --- | --- | --- | --- | --- | --- |
| CCNCc1nc2c(N)nc3ccccc3c2n1CC(C)(C)O [Gardiquimod] | greater anti-tumor effect | not | reduced | reduced | greater number | do not have significant anti-tumor efficacy | significantly increased; also recorded: improved the tumor growth suppression | modest effects |
| Pam3CSK4 | greater anti-tumor effect | not | reduced | reduced | greater number | do not have significant anti-tumor efficacy | significantly increased; also recorded: improved the tumor growth suppression | modest effects |
